Tests used:
Experiment in all cases: relative viability (nuclei count vs DMSO), 5 days (fraction); higher = more cells survive
[1] = compound: Cc1cnc(CNC(=O)c2c(=O)c3ccc(N4CCCN(C)CC4)nc3n3c2sc2ccccc23)cn1 [CX-5461] + C[C@@H](Oc1cc(-c2cnn(C3CCNCC3)c2)cnc1N)c1c(Cl)ccc(F)c1Cl [Crizotinib] (partner 1 µM)
In short: (§1)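 Relative viability is defined as nuclei in treated wells over nuclei in vehicle wells. Duplicate plates were run and medians reported. Lung cancer cell lines in 1536-well plates were dosed by pin tool one day after seeding, with one drug or with a fixed anchor-drug dose plus five library-drug doses (not always all listed) in √10 steps, and nuclei were counted after 5 days.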

[2] = compound: O=C(Nc1cc(C(F)(F)F)cc(C(F)(F)F)c1)c1cc(Cl)ccc1O [IMD-0354] + CC(=O)c1c(C)c2cnc(Nc3ccc(N4CCNCC4)cn3)nc2n(C2CCCC2)c1=O [Palbociclib] (partner 0.5 µM)
In short: as §1

[3] = compound: O=C(Nc1cc(C(F)(F)F)cc(C(F)(F)F)c1)c1cc(Cl)ccc1O [IMD-0354] + Nc1ncn([C@H]2C[C@H](O)[C@@H](CO)O2)c(=O)n1 [Decitabine] (partner 2 µM)
In short: as §1

[4] = compound: Cc1cnc(CNC(=O)c2c(=O)c3ccc(N4CCCN(C)CC4)nc3n3c2sc2ccccc23)cn1 [CX-5461] + C[C@]1(O)C[C@@H](c2nc(-c3ccc4ccc(-c5ccccc5)nc4c3)c3c(N)nccn32)C1 [Linsitinib] (partner 1 µM)
In short: as §1

Cell Line	relative viability ([1]; first compound 0.01 µM)	relative viability ([1]; first compound 0.03162 µM)	relative viability ([1]; first compound 0.1 µM)	relative viability ([1]; first compound 0.3162 µM)	relative viability ([1]; first compound 1 µM)	relative viability ([2]; first compound 0.04 µM)	relative viability ([2]; first compound 0.1265 µM)	relative viability ([2]; first compound 0.4 µM)	relative viability ([2]; first compound 1.265 µM)	relative viability ([2]; first compound 4 µM)	relative viability ([3]; first compound 0.04 µM)	relative viability ([3]; first compound 0.1265 µM)	relative viability ([3]; first compound 0.4 µM)	relative viability ([3]; first compound 1.265 µM)	relative viability ([3]; first compound 4 µM)	relative viability ([4]; first compound 0.01 µM)	relative viability ([4]; first compound 0.03162 µM)	relative viability ([4]; first compound 0.1 µM)	relative viability ([4]; first compound 0.3162 µM)	relative viability ([4]; first compound 1 µM)
201T	1.07	1.02	1.02	1.03	1.01	0.35	0.387	0.294	0.375	0.28	0.797	0.807	0.851	0.828	0.331	1.05	0.995	1.03	1.02	0.993
A549	0.824	0.804	0.357	0.655	0.0561						0.269	0.229	0.249	0.296	0.1	0.644	0.712	0.57	0.122	0.544
A-427	1.04	1.08	1		0.888	0.516	0.525	0.441	0.157	0.158	0.709	0.593	0.522	0.15	0.175	1.19	1.11	1.15		1.08
ABC-1	1.07	1.57		0.57	0.323	0.638	0.778	0.69		0.432	1.23	0.985	0.851		0.36	1.11	0.84		0.817	0.494
BEN	1	0.905	0.912	0.832	0.752	0.432	0.428	0.359	0.411	0.318	0.739	0.741	0.567	0.391	0.347	1.01	0.967	1.01	0.827	0.727
CAL-12T	0.564	0.588		0.653	0.365	0.633	0.423	0.325	0.189	0.164						0.874	1.05	0.843	0.868	0.622
COR-L23	0.63	0.797	0.482	0.602	0.256	0.303	0.278	0.185	0.122	0.12	0.402	0.443	0.339	0.141	0.146	0.908	1.05	0.651	0.969	0.472
COR-L 105	1.12	0.992	0.861	0.745	0.325	0.404	0.395	0.394	0.33	0.284	0.674	0.685	0.576	0.619	0.318	1.05	0.93	1.08	0.852	0.59
Calu-6	0.861	0.809	0.722	0.723	0.289											1.02	0.952	0.986	0.827	0.51
ChaGo-K-1	1.17	1.21	1.06	0.341	0.79	0.844	0.917	0.55	0.473	0.236	0.509	0.508	0.435	0.511	0.198					
EBC-1	0.174	0.207	0.19	0.215	0.156											0.988	1.04	1.04	0.859	0.753
EKVX	1.12	0.997	0.899		0.827	0.383	0.343		0.29	0.215	0.294	0.316		0.36	0.155	1.19	1.02	0.962		0.962
EMC-BAC-2	0.782	0.839	0.725	0.541	0.74	0.534	0.522	0.423	0.35	0.34	0.955	0.994	0.696		0.282	0.843	0.914	0.828	0.824	0.815
EPLC-272H	1.04	1.01	0.941		0.985	0.267	0.343	0.349	0.356	0.131	0.372	0.341	0.362	0.337	0.288	1.3	1.27	1.09		1.06
H3255	0.849	0.957	0.883	0.268	0.662	0.33	0.331	0.306	0.275	0.274	0.52	0.595	0.504	0.529	0.3	1.04	1.01	0.935	0.735	0.988
HARA	1.16	1.14	0.941	0.206	0.954	0.237	0.202	0.314	0.195	0.204	0.5	0.665	0.399	0.189	0.251	0.953	1.04	0.98	0.772	0.966
HCC-15	0.884	0.888	0.765	0.766	0.691	0.733	0.664	0.627	0.289	0.1	0.68	0.614	0.292	0.108	0.161	0.906	0.904	0.933	0.909	0.834
HCC-44	0.796	0.832	0.823	0.782	0.801	1.06	0.964	0.922	0.661	0.452	0.971	0.939	0.813	0.625	0.449	0.734	0.681	0.685	0.676	0.644
HCC-78	0.357	0.36	0.358	0.243	0.328	0.538	0.506	0.322	0.383	0.424	0.714	0.619	0.583	0.6	0.426	0.566	0.548	0.502	0.437	0.398
HCC-366	0.693	0.82	0.573	0.252	0.48	0.474	0.535	0.259	0.0918	0.0749	0.423	0.395	0.248	0.0815	0.0425	0.574	0.738	0.581	0.573	0.615

Cell Line	relative viability ([1]; first compound 0.01 µM)	relative viability ([1]; first compound 0.03162 µM)	relative viability ([1]; first compound 0.1 µM)	relative viability ([1]; first compound 0.3162 µM)	relative viability ([1]; first compound 1 µM)	relative viability ([2]; first compound 0.04 µM)	relative viability ([2]; first compound 0.1265 µM)	relative viability ([2]; first compound 0.4 µM)	relative viability ([2]; first compound 1.265 µM)	relative viability ([2]; first compound 4 µM)	relative viability ([3]; first compound 0.04 µM)	relative viability ([3]; first compound 0.1265 µM)	relative viability ([3]; first compound 0.4 µM)	relative viability ([3]; first compound 1.265 µM)	relative viability ([3]; first compound 4 µM)	relative viability ([4]; first compound 0.01 µM)	relative viability ([4]; first compound 0.03162 µM)	relative viability ([4]; first compound 0.1 µM)	relative viability ([4]; first compound 0.3162 µM)	relative viability ([4]; first compound 1 µM)
HCC-827	0.876	0.877	0.905	0.866	0.846	0.514	0.491	0.407	0.36	0.222	0.369	0.346	0.296	0.19	0.196	0.901	1.01	0.999	0.946	0.957
HOP-62	0.996	0.901	0.858	0.624	1.09	0.454	0.39	0.299	0.266	0.0933	0.217	0.226	0.208	0.17	0.0936	1.08	0.813	0.922	0.858	0.997
IA-LM	0.968	0.813	0.821	0.836	0.33											0.644	0.863	0.852	0.688	0.415
LC-2-ad	0.491	0.522	0.363	0.286	0.454	0.531	0.451	0.333	0.287	0.181	0.876	0.698	0.5	0.322	0.199	0.808	0.886	0.829	0.858	0.833
LCLC-97TM1	0.436	0.422	0.286		0.436	0.227	0.225	0.111	0.174	0.103	0.232	0.257	0.199	0.162	0.115	0.176	0.205	0.168		0.212
LCLC-103H	1.12	1.08	1.13	1.04	1.08	0.469	0.468	0.459	0.386	0.331	0.727	0.737	0.635	0.546	0.293	1.14	1.16	0.895	1.21	1.12
LK-2		0.188	0.214		0.239	0.521	0.614		0.877	0.185	0.292	0.315		0.141	0.196	0.363	0.715	0.598		0.515
NCI-H522						1.14	0.87	0.881	0.994	0.458	0.748	0.659	0.615	0.57	0.428					
NCI-H596	0.981	0.972	0.973	1.19	0.907						1.02	0.998	0.825	0.849	0.616	1.11	1.06	1.21	1.15	1.1
NCI-H1299	0.961	0.99	0.991	0.959	0.863											0.942	0.977	1.04	1.01	0.831
NCI-H1395						0.679	0.682	0.656	0.397	0.418	0.74	0.645	0.713	0.358	0.402	1.06	1.15	1.06	0.612	0.583
NCI-H1563	0.865	0.725	0.774	0.675	0.464											1.19	1.14	0.894	0.995	0.664
NCI-H1648						0.278	0.227	0.224	0.21	0.259	0.526	0.475	0.401	0.374	0.272					
NCI-H1650	1.08	0.996		0.948	0.149	0.192	0.389	0.311	0.127	0.181	0.378	0.455	0.285	0.203	0.129					
NCI-H1703	0.783	0.852	0.77	0.663	0.343											0.374	1.22	0.898	0.223	0.423
NCI-H1793						0.298	0.317	0.211	0.191	0.225	0.583	0.438	0.335	0.098	0.262	1.05	0.913	0.941	0.913	0.752
NCI-H2170	1.17	1.29	1.28	1.18	1.09	0.425	0.394	0.342	0.385	0.229	0.467	0.457	0.37	0.443	0.396					
NCI-H2228	0.445	0.602	0.511	0.482	0.204	0.618	0.618	0.683	0.21	0.322						0.736	0.975	0.416	0.718	0.282
NCI-H2342						0.491	0.511	0.499	0.538	0.438	0.728	0.707	0.601	0.656	0.5					
SW 900						0.517	0.629	0.478	0.187	0.248	0.432	0.414	0.397	0.208	0.213					

— the supplement of paper PMC10307832
